Consider 3 compounds from ChEMBL document CHEMBL4118098, “Discovery of DS28120313 as a potent orally active hepcidin production inhibitor: Design and optimization of novel 4,6-disubstituted indazole derivatives” (Bioorg Med Chem Lett, 2017).

Assay [1] relates to Hepatocyte growth factor receptor (Homo sapiens), P08581 [M1250T]. The assay is described as follows: Inhibition of MET M1250T mutant (unknown origin) at 0.19 uM relative to control.
Assay [2] deals with Dual specificity tyrosine-phosphorylation-regulated kinase 4 (Homo sapiens) (UniProt Q9NR20). The assay is described as follows: Inhibition of DYRK4 (unknown origin) at 0.19 uM relative to control.
Assay [3] deals with Serine/threonine-protein kinase Sgk3 (Homo sapiens) (UniProt Q96BR1). The assay is described as follows: Inhibition of SGK3 (unknown origin) at 0.19 uM relative to control.
For assay [4], the system named is Tyrosine-protein kinase ABL1 (Homo sapiens), P00519 [Q252H]. The assay is described as follows: Inhibition of Abl Q252H mutant (unknown origin) at 0.19 uM relative to control.
The target in assay [5] is T1, cGMP-dependent protein kinase 1 (Homo sapiens) (UniProt Q13976).
T1 sequence (whole entry): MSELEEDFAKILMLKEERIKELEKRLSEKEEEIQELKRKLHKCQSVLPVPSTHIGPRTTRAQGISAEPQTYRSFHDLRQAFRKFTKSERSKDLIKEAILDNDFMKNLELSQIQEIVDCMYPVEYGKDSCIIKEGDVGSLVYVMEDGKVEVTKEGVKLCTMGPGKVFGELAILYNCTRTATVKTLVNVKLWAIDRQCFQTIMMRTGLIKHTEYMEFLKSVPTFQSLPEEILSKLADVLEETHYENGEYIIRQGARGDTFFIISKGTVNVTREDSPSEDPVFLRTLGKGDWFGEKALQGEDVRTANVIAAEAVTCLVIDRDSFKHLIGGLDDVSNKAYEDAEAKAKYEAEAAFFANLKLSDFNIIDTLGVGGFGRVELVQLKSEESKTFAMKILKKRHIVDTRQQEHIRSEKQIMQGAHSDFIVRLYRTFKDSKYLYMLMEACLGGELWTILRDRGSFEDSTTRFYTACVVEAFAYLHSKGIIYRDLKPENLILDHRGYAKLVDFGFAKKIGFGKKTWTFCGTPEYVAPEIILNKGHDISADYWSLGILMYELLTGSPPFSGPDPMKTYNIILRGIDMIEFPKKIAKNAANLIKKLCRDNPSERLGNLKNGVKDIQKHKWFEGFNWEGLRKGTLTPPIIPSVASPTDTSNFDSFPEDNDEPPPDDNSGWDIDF
The assay is described as follows: Inhibition of PKG1-beta (unknown origin) at 0.19 uM relative to control.

Assay [6] concerns the target Protein kinase C delta type (Homo sapiens) (UniProt Q05655). Description: Inhibition of PKC-delta (unknown origin) at 0.19 uM relative to control.
For assay [7], the target named is Protein kinase C epsilon type (Homo sapiens) (UniProt Q02156). Description: Inhibition of PKC-epsilon (unknown origin) at 0.19 uM relative to control.
Assay [8] addresses T2, Serine/threonine-protein kinase DCLK1 (Homo sapiens) (UniProt O15075).
T2 sequence (whole entry): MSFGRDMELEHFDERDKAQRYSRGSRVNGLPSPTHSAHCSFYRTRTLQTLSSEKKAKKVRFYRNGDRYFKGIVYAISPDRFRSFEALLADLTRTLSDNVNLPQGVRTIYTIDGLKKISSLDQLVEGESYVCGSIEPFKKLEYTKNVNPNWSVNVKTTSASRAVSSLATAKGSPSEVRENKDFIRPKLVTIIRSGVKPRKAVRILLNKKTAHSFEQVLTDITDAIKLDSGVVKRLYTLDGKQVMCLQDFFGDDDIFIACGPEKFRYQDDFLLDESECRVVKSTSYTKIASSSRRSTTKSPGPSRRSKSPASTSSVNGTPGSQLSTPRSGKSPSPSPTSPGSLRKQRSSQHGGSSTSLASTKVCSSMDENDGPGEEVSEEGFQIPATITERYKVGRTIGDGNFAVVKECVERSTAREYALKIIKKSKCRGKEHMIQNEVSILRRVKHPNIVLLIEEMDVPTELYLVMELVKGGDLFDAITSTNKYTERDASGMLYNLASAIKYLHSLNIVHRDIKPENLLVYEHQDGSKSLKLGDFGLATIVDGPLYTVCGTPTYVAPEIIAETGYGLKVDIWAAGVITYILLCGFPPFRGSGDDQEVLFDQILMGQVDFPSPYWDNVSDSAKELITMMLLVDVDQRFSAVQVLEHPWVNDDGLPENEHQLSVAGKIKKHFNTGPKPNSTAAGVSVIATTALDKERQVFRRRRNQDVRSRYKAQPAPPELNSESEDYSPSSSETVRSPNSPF
Description: Inhibition of DCAMKL1 (unknown origin) at 0.19 uM relative to control.

Assay [9] concerns the target Ephrin type-B receptor 3 (Homo sapiens) (UniProt P54753). The assay is described as follows: Inhibition of EPHB3 (unknown origin) at 0.19 uM relative to control.
Assay [10] addresses Tyrosine-protein kinase receptor TYRO3 (Homo sapiens) (UniProt Q06418). Description: Inhibition of TYRO3 (unknown origin) at 0.19 uM relative to control.
Assay [11] concerns the target Protein kinase C beta type (Homo sapiens) (UniProt P05771). The assay is described as follows: Inhibition of PKC-beta1 (unknown origin) at 0.19 uM relative to control.
Assay [12] deals with Protein kinase C alpha type (Homo sapiens) (UniProt P17252). The assay is described as follows: Inhibition of PKC-alpha (unknown origin) at 0.164 uM relative to control.
Assay [13] addresses Receptor tyrosine-protein kinase erbB-4 (Homo sapiens) (UniProt Q15303). Description: Inhibition of HER4 (unknown origin) at 0.164 uM relative to control.
Assay [14] concerns the target Tyrosine-protein kinase Blk (Homo sapiens) (UniProt P51451). Description: Inhibition of BLK (unknown origin) at 0.164 uM relative to control.
For assay [15], the target named is Tyrosine-protein kinase Lyn (Homo sapiens) (UniProt P07948). Description: Inhibition of LYN (unknown origin) at 0.164 uM relative to control.
Assay [16] concerns the target Mitogen-activated protein kinase 3 (Homo sapiens) (UniProt P27361). The assay is described as follows: Inhibition of Erk1 (unknown origin) at 0.164 uM relative to control.
Assay [17] has as its target ALK tyrosine kinase receptor (Homo sapiens) (UniProt Q9UM73). The assay is described as follows: Inhibition of ALK (unknown origin) at 0.164 uM relative to control.
For assay [18], the target named is T3, Mitogen-activated protein kinase 12 (Homo sapiens) (UniProt P53778).
T3 sequence (whole entry): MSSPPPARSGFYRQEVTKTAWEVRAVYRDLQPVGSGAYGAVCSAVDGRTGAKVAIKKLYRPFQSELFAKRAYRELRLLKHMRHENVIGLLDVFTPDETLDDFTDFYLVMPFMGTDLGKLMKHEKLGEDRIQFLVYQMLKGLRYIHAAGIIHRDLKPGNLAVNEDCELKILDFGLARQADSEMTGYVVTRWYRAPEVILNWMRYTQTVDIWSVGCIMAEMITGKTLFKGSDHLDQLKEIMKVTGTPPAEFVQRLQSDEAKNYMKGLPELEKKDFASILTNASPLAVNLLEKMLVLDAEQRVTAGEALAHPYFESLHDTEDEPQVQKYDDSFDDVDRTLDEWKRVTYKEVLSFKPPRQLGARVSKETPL
Description: Inhibition of p38-gamma (unknown origin) at 0.45 uM relative to control.

As a reminder, the inhibition is the drop in the measured response relative to a control, in per cent. With `Cc1[nH]nc(C2CC2)c1-c1ccc2c(-c3ccc(N4CCN(C)CC4)nc3)n[nH]c2c1`, the inhibition in [1] was 2%; in assay [2], -0.7%; in assay [3], 4%; in [4] it was 71%; in assay [5], -3.3%; in assay [6] it was 0%. Further, the inhibition is 3% in assay [7]; -1.3% in assay [8]; 1% in assay [9]; 10% in assay [10]; 3% in [11].
For the compound `COC(=O)Nc1cc(-c2c(C3CC3)n[nH]c2C)cc2[nH]ncc12`, the inhibition in [12] was 1.3%; in [13], -7.7%; in assay [14], 6.7%; in assay [15] it was 10%; in assay [16], 7%; in [17] it was 4.3%.
In the case of `Cc1n[nH]c(C)c1-c1ccc2c(NC(=O)c3ccc(N4CCN(C)CC4)cc3)n[nH]c2c1`, the inhibition in assay [18] was found to be 0%.
